Data: US10064858B2, “Methods and compositions for treating bacterial infections with iron chelators” (THE UNITED STATES OF AMERICA, AS REPRESENTED BY THE …, priority 2011, dated 2018)
Where two headings read alike, the source gives them in different places.

Columns and labels:
Format in all cases: cell-based
[1] = test system: clinical isolates of A. baumannii; test: MIC for clinical isolates in CAMHB media (Table 3); details: Acinetobacter baumannii
Procedure: Individual MICs were determined following the microdilution method recommended by CLSI in cationic-adjusted Mueller-Hinton Broth (CAMHB), or M9 media. […] Tests were performed in triplicate. MIC of iron chelators were determined for noscomial ESKAPE pathogens.

[2] = test system: A. baumannii AB 19606, AB 17978; test: Checkerboard assay, chelator with antibiotic (FIC)
From the text: Drug interactions were initially evaluated with the “checkerboard” microdilution design, which provided a matrix of all drug combinations assayed in terms of fractions of the previously determined MIC. The checkerboard microdilution design is described in R. J. Tallarida, “Drug Synergism: Its Detection and Applications,” Journal of Pharmacology and Experimental Therapeutics, 865-872 (2001); and in R. L. White, et al., (1996), supra. FIGS. 39A and 39B show the wellplates having different concentrations of iron chelator and antibiotic, as labeled along the x-axis and y-axis. […] The checkerboard assay was used to asses other combinations of iron chelators and antibiotics. The fractional inhibitory concentration index (FIC), which was calculated as follows: FIC=(MIC A in combination/MIC A)+(MIC B in combination/MIC B). […] Blank spaces indicate concentrations not tested. […] Against the species PA PAO1 and PA 27853, all the antibiotics except for Ami.

[3] = test system: AB5075 a MDR-clinical isolate of A. baumannii; test: Time-kill assay in CAMHB; details: for effect on CFU/ml (time-kill, FIG. 13): 2 and 6 hours; for time-kill course of CFU/mL: 24 hours (FIG. 8A)
Procedure: Reductions in colony forming units (CFU)/mL were determined over time (time-kill assay) after exposure to VK28 and deferiprone (DFP), the two iron chelators that performed best in MIC assays when compared to controls. To better represent the iron content found in the human body, MIC and time-kill assays were also determined in minimal media and tissue culture media. Time-Kill assays were performed as previously described in G. P. Neupane et al., “In vitro time-kill activities of ciprofloxacin alone and in combination with the iron chelator deferasirox against Vibrio vulnificus,” European Journal of Clinical Microbiology and Infectious Diseases, 407-410 (2010); and R. L. White, et al., “Comparison of Three Different In Vitro Methods of Detecting synergy: Time-Kill, Checkerboard, and E test,” Journal of Antimicrobial Agents and Chemotherapy, 1914-1918 (1996). Initial inocula, for example 1×10^6 CFU/mL or 1×10^7 CFU/mL were challenged with iron chelator with and/or without an antibiotic. Cells were allowed to grow in CAMHB at 37° C. for 24 hours. Time-kill results were analyzed by determining the change in log 10 numbers of CFU/ml at 0, 6, and 24 h, compared to counts at 0 h. Antimicrobials were considered bactericidal at the lowest concentration that reduced the size of the original inoculum by >3 log 10 CFU/ml (99.9%) over each of the time periods and were considered bacteriostatic if the inoculum's size was reduced by 0 to <3 log 10 CFU/ml.
(§1) In this example, time-kill assays were performed as described in Example 9 using Apo6619 as the iron chelator against AB5075 (MRSN959), the MDR-clinical isolate of A. baumannii. The initial inocula was 1×10^6 CFU/mL, and were challenged with 0.5×MIC, 1×MIC and 2×MIC of Apo6619. Time-kill results were analyzed by determining the change in log 10 numbers of CFU/mL at 0, 2 and 4 hours.
as §1, with “VK28 or DFP” for “Apo6619”, “AB5075,” for “AB5075 (MRSN959),”, “either VK28 or DFP.” for “Apo6619.”, “at” for “at 0,”, “6” for “4”

[4] = test system: multi-drug resistant bacterial species; test: Checkerboard, synergy with rifampin (summary)
From the text: Drug interactions were initially evaluated with the “checkerboard” microdilution design, which provided a matrix of all drug combinations assayed in terms of fractions of the previously determined MIC. The checkerboard microdilution design is described in R. J. Tallarida, “Drug Synergism: Its Detection and Applications,” Journal of Pharmacology and Experimental Therapeutics, 865-872 (2001); and in R. L. White, et al., (1996), supra. FIGS. 39A and 39B show the wellplates having different concentrations of iron chelator and antibiotic, as labeled along the x-axis and y-axis.
The checkerboard assay was used to asses other combinations of iron chelators and antibiotics. The fractional inhibitory concentration index (FIC), which was calculated as follows: FIC=(MIC A in combination/MIC A)+(MIC B in combination/MIC B). Interaction was defined as synergistic if the FIC was <1.0, preferably <0.5, no interaction if the FIC was >1.0 and <4.0, and antagonistic if the FIC was >4.0.
The assay was run against the multi-drug resistant bacterial species AB 19606, AB 17978, KP ndm, PA PAO1, PA 27853, EC 35718, and EC 43888. Blank spaces indicate concentrations not tested. […] Against the species PA PAO1 and PA 27853, all the antibiotics except for Ami.

OCCN1CCN(Cc2ccc(O)c3ncccc23)CC1 [VK28, 5-(4-(2-hydroxyethyl)piperazin-1-ylmethyl)-8-hydroxyquinoline]
MIC ([1]; AB967, read-out: MIC of Iron Chelators): 250 µg/mL | MIC ([1]; AB2828, read-out: MIC of Iron Chelators): 250 µg/mL | MIC ([1]; AB3340, read-out: MIC of Iron Chelators): 250 µg/mL | MIC ([1]; AB3560, read-out: MIC of Iron Chelators): 250 µg/mL | MIC ([1]; AB3638, read-out: MIC of Iron Chelators): 250 µg/mL | MIC ([1]; AB3785, read-out: MIC of Iron Chelators): 250 µg/mL | MIC ([1]; AB3806, read-out: MIC of Iron Chelators): 500 µg/mL | MIC ([1]; AB3917, read-out: MIC of Iron Chelators): 500 µg/mL | MIC ([1]; AB3927, read-out: MIC of Iron Chelators): 250 µg/mL | MIC ([1]; AB4025, read-out: MIC of Iron Chelators): 250 µg/mL | MIC ([1]; AB4026, read-out: MIC of Iron Chelators): 250 µg/mL | MIC ([1]; AB4027, read-out: MIC of Iron Chelators): 250 µg/mL | MIC ([1]; AB4052, read-out: MIC of Iron Chelators): 500 µg/mL | MIC ([1]; AB4269, read-out: MIC of Iron Chelators): 250 µg/mL | MIC ([1]; AB4448, read-out: MIC of Iron Chelators): 250 µg/mL | MIC ([1]; AB4456, read-out: MIC of Iron Chelators): 250 µg/mL | MIC ([1]; AB4490, read-out: MIC of Iron Chelators): 250 µg/mL | MIC ([1]; AB4498, read-out: MIC of Iron Chelators): 500 µg/mL | MIC ([1]; AB4795, read-out: MIC of Iron Chelators): 250 µg/mL | MIC ([1]; AB4857, read-out: MIC of Iron Chelators): 500 µg/mL | MIC ([1]; AB4878, read-out: MIC of Iron Chelators): 500 µg/mL | MIC ([1]; AB4932, read-out: MIC of Iron Chelators): 500 µg/mL | MIC ([1]; AB4957, read-out: MIC of Iron Chelators): 500 µg/mL | MIC ([1]; AB4991, read-out: MIC of Iron Chelators): 250 µg/mL | MIC ([1]; AB5001, read-out: MIC of Iron Chelators): 250 µg/mL | MIC ([1]; AB5075, read-out: MIC of Iron Chelators): 250 µg/mL | MIC ([1]; AB5197, read-out: MIC of Iron Chelators): 250 µg/mL | MIC ([1]; AB5256, read-out: MIC of Iron Chelators): 250 µg/mL | MIC ([1]; AB5674, read-out: MIC of Iron Chelators): 250 µg/mL | MIC ([1]; AB5711, read-out: MIC of Iron Chelators): 250 µg/mL | FIC ([2]; AB 17978, in combination with Amikacin): 1.25 | FIC ([2]; AB 17978, in combination with Cefotaxine): 0.75 | FIC ([2]; AB 17978, in combination with Colisitin (Colistin)): 0.75 | FIC ([2]; AB 17978, in combination with Doxycycline): 1.25 | FIC ([2]; AB 17978, in combination with Rifampin): 0.75 | FIC ([2]; AB 19606, in combination with Amikacin): 1.25 | FIC ([2]; AB 19606, in combination with Cefotaxine): 1.25 | FIC ([2]; AB 19606, in combination with Colisitin (Colistin)): 0.75 | FIC ([2]; AB 19606, in combination with Doxycycline): 2.25 | FIC ([2]; AB 19606, in combination with Rifampin): 1.25 | effect on CFU/ml (time-kill, FIG. 13) ([3]; 0.5 MIC): inhibitory effect on the CFU/ml | CFU/mL at 24 hours ([3]; 0.5 MIC, CAMHB): about 1×10^9 CFU/mL | time-kill course of CFU/mL ([3]; 0.5×MIC, CAMHB): initial decrease in CFU/mL at 2 and 6 hours, but rebounded | effect on CFU/ml (time-kill, FIG. 13) ([3]; 1×MIC): inhibitory effect on the CFU/ml | time-kill course of CFU/mL ([3]; 1×MIC, CAMHB): did not increase in CFU over the 24 hour period | effect on CFU/ml (time-kill, FIG. 13) ([3]; 2×MIC): inhibitory effect on the CFU/ml | time-kill course of CFU/mL ([3]; 2×MIC, CAMHB): decrease in CFU/mL after 2 hours that was sustained through the 24 hour period | synergy with rifampin, checkerboard [4]: moderate degrees of synergy
